The record followed here is BindingDB's records for patent US20250214965 (Hangzhou Innogate Pharma, 2025).

One may read the IC50 as the concentration at which inhibition is half-maximal. High values mean weaker potency, low ones greater potency.

The target in this experiment is T1, Kinesin-like protein KIF18A (Homo sapiens, UniProt Q8NI77).
T1 sequence (Q8NI77 whole entry): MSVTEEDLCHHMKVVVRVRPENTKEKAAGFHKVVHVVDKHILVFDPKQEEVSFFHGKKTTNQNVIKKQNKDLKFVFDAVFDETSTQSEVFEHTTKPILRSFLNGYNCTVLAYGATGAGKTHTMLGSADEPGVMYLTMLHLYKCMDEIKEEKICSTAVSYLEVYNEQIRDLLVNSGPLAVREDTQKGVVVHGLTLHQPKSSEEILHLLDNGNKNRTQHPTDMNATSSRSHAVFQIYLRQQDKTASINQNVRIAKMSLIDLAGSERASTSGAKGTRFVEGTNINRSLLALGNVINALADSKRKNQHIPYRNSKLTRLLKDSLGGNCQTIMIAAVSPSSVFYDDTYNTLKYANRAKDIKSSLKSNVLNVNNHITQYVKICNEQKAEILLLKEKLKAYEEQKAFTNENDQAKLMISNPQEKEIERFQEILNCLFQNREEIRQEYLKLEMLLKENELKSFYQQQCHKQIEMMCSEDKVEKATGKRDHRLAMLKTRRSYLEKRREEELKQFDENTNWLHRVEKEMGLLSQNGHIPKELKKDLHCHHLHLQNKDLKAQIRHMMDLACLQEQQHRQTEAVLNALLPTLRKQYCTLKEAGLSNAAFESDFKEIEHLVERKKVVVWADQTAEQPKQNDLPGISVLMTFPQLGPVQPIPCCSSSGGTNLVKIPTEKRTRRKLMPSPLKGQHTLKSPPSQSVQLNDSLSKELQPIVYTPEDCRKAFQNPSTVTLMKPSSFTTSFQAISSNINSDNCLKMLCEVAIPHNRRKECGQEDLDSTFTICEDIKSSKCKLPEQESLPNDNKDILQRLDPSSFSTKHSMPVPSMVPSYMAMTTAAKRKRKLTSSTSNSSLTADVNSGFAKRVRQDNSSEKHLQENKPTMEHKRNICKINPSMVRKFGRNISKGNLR
Kind of experiment: Inhibition of KIF18A Enzyme Activity. Here is the method:
The ADP-Glo method was used to test the enzymatic activity of KIF18A. The compound was diluted 3-fold with DMSO at a starting concentration of 3000 nM, for a total of ten concentrations, and tested in duplicate. Echo was used to transfer 25 nL of the diluted compound to a 384-well plate, and 2.5 μL of enzyme working solution was added. Plate was centrifuged at 1000 rpm for 1 min, and incubated at 25° C. for 10 min. 2.5 μL of ATP and substrate solution was added to start the reaction, and plate was incubated at 25° C. for 60 min. 4 μL of ADP-Glo solution was added to the 384-well plate, and plate was incubated at 25° C. for 40 min. 8 μL of detection solution was added and incubated at 25° C. for 40 min, and BMG was used to read the […] value. Inhibition rate was calculate according to the following formula: Inhibition rate (%)=(DMSO well−compound well)/(DMSO well−blank control well)×100%. The IC50 value of each compound was analyzed using the nonlinear regression method of XLFit 5.5.0 software. The formula is: Y=Bottom+(Top−Bottom)/(1+10^((Log IC50−X)*HillSlope)).
`Cc1cc(NC(=O)c2ccc(NS(=O)(=O)CCO)cc2N2CCC(=C(F)F)CC2)nc(N2CCC(F)(F)CC2)c1F` [US20250214965, Compound 79] had an IC50 of less than 50 nM.

Consider `Cc1cc(NC(=O)c2ccc(NS(=O)(=O)[C@H](C)CO)cc2N2CCC(=C(F)F)CC2)nc(N2CCC(F)(F)CC2)n1` [US20250214965, Compound 68], for which the IC50 is less than 50 nM. Regarding `Cc1cc(NC(=O)c2ccc(NS(=O)(=O)[C@@H](C)CO)cc2N2CCC(=C(F)F)CC2)nc(N2CCC(F)(F)CC2)n1` [US20250214965, Compound 69], the IC50 is less than 100 nM. As to `Cc1cc(NC(=O)c2ccc(NS(=O)(=O)[C@H](C)CO)cc2N2CCC(=C(F)F)CC2)nc(N2CCC(F)(F)CC2)c1` [US20250214965, Compound 82], the IC50 was less than 50 nM. The compound `Cc1cc(NC(=O)c2ccc(NS(=O)(=O)CCO)cc2N2CCC3(CC2)CC3)nc(N2CCC(F)(F)CC2)c1F` [US20250214965, Compound 85] gave a half-maximal inhibitory concentration (IC50) of less than 50 nM.
